Legend:
[1] = test system: 585B1-868BTAG iPSC-derived PGCLCs; experiment: hPGCLC maintenance and expansion culture with added Wnt signal transduction inhibitors; growth curve and enrichment score by FACS; type: cell-based, human; settings: control DMSO
From the text: FIG. 14A A drawing showing the suppressive effect of Wnt signal transduction inhibitor on PGCLC dedifferentiation. […] Growth curve of BTAG double-positive cells under each condition in 30 day culture (n=3). The average values of the three experiments were plotted and connected with a straight line. The number after the lowercase letter “c” indicates the number of days of culture.
FIG. 14B A drawing showing the suppressive effect of Wnt signal transduction inhibitor on PGCLC dedifferentiation. […] Enrichment score (n=3) under each condition at C10, C20 and C30. The average values were plotted with red diamonds. Using the DMSO-added group as a control group, a multiple comparison test was performed by Dunnet method. *:p<0.1, **:p<0.05 […]
Further detailed analysis of the FACS analysis results of 585B1-868BTAG (BLIMP1-tdTomato and AP2γ-EGFP) iPS cell-derived proliferated human PGCLC was performed. In the FACS analysis, the expression of the human cell-specific cell surface antigen TRA-1-85 in the population excluding dead cells by DRAQ7 staining was analyzed. […]
Proliferation culture was performed using 585B1-868BTAG iPSC-derived PGCLCs on day 6 of differentiation induction. […] Cells were passaged and counted by FACS every 10 days to draw a proliferation curve. In addition, an enrichment score was calculated at respective culture day numbers.

[2] = test system: BT+AG+ hPGCLC (d6 hPGCLCs from 585B1 BTAG hiPSC); experiment: hPGCLC expansion culture on m220 feeders with combinations of chemical substances and cytokines; BT+AG+ cells counted by FACS; type: cell-based, human; settings: 10 days of culture, GMEM, 15% KSR, 2.5% FBS, 100 ng/ml SCF, forskolin 10 μM, rolipram 10 μM, cyclosporin A 5 μM, LIF 10 ng/ml, EGF 50 ng/ml, bFGF 20 ng/ml
Protocol: FIG. 1B Exploration of conditions for expanding hPGCLC in vitro. (B) (Left) Scheme for exploration of conditions for BT^+AG^+ cell proliferation. (Right) Plot showing the number of BT^+AG^+ cells after 10 days of culture under the indicated conditions determined by FACS analysis. (Blue) Combination of chemical substances [forskolin (10 μM), rolipram (10 μM), and cyclosporin A (5 μM)] used for BT^+AG^+ cell proliferation. (Yellow) Combination of cytokines [LIF (10 ng/ml), EGF (50 ng/ml), and basic fibroblast growth factor (bFGF: 20 ng/ml)] used for BT^+AG^+ cell proliferation. About 5000 hPGCLCs were used as the starting cell population. […] Conditions for mPGCLC expansion: green. Conditions without additional chemical substance/cytokine: gray.
In order to examine the influence of cytokine and/or chemical substances on hPGCLC proliferation, hPGCLC was treated with MMC in GK15 containing 2.5% FBS and 100 ng/mL SCF, and supplemented with cytokine and/or chemical substances [10 ng/mL LIF; 50 ng/mL EGF; 20 ng/mL bFGF; 10 μM forskolin; 10 μM rolipram; 5 μM cyclosporin A (SIGMA, 30024)], and the cells were passaged every 10 days [see the section of Fluorescence activated cell sorting]. On the day of passage, about 5.0×10^3 cells were plated on 24-well plates (0.5 mL of medium containing 10 μM Y27632), and 0.5 mL of medium free of Y27632 was 0.5 mL added the next day. […]

Compound	appearance of dedifferentiated cells (enrichment score) ([1]; c10, c20, c30, IWR1 at various concentrations, inhibitor comparison at 2.5 μM)	effect on hPGCLC proliferation (growth curve of BTAG double-positive cells) ([1]; various concentrations added to maintenance and expansion medium, 30 days of culture, n=3)	effect on expansion of the number of BT+AG+ cells [2]
O=C(Nc1cccc2cccnc12)c1ccc(N2C(=O)[C@@H]3[C@H](C2=O)[C@@H]2C=C[C@H]3C2)cc1 [IWR1]	significantly suppressed	no effect	
FGF: basic fibroblast growth factor, 20 ng/ml			positive effect
